We go through two compounds from US20130252831A1, “METHOD OF DIAGNOSING EARLY STAGE NON-SMALL CELL LUNG CANCER” (H. Lee Moffitt Cancer Center and Research Institute, Inc., priority 2010, published 2013).

Molecules are shown by their SMILES.

One assay relates to A489 cell line. Put plainly: MR score in cisplatin treated versus control cells, Almeida et al. dataset GSE6410. It counts as cell-based. The settings on record: p=0.08. An excerpt:
The inventors have identified 10 published datasets describing drug sensitivity in cell lines. Three of them have been analyzed to show the potential of the MR signature for its association with drug sensitivity. […] A high MR score tends to be associated with low GI50 (sensitivity) in both drugs. In addition, in the Almeida et al.'s study (GSE6410), the MR score was lower in the cisplatin treated group than in the control group in A489 cell line (FIG. 20c).
Thousands and thousands of gene expression array data have been deposited at various public repositories, such as NCBI's Gene Expression Omnibus and EBI's ArrayExpress with more than 600,000 array data for each site (updated in October 2011; 100,000 more since January 2011). The broad and unrestricted microarray data have made in-silico validation of hypotheses accessible and feasible. For this invention, more than 1,000 microarray datasets have potential for performing in-silico validation (e.g., data related to the keyword “non-small cell lung cancer cell line” at GEO). First, appropriate datasets are identified for validation by reading the […] (at least abstract and experimental design). At this moment, more than 10 potential useful datasets have been identified. […] Molecular cancer therapeutics, 2008, 7(7); p. […]

A further assay concerns EGFR-mutant NSCLC. The settings on record: randomized phase III trial (Zhou et al.); cited from earlier work.

Consider `N.N.[Cl][Pt][Cl]` [Cisplatin], for which the “MR score in treated group versus control group” value with A489 cell line was “lower”.

In the case of `C#Cc1cccc(Nc2ncnc3cc(OCCOC)c(OCCOC)cc23)c1` [erlotinib], the “efficacy compared with platinum-based chemotherapy” value in the assay on EGFR-mutant NSCLC is given as “superior to platinum-based chemotherapy”.
